Measurements from ChEMBL document CHEMBL1146189, “Antiproliferation and apoptosis induced by C-glycosides in human leukemia cancer cells” (Bioorg Med Chem Lett, 2006).
Activity calls are given as the source filed them. The calls are words filed in the database; no cut-off is given here.

The molecules below were run on HL-60 (assay: Induction of apoptosis in human HL60 cells). Conditions: not given.
Type: functional, cell-based

Compound	Activity
CC(C)C[C@@H]1O[C@H](COCc2ccccc2)[C@@H](OCc2ccccc2)[C@H](OCc2ccccc2)[C@H]1O	Active
CC[C@@H]1O[C@H](COCc2ccccc2)[C@@H](OCc2ccccc2)[C@H](OCc2ccccc2)[C@H]1O	Active
C=CC[C@@H]1O[C@H](COCc2ccccc2)[C@@H](OCc2ccccc2)[C@H](OCc2ccccc2)[C@H]1O	Active
CC1(C)OC[C@@H]2O[C@H](COCc3ccccc3)[C@@H](OCc3ccccc3)[C@H](OCc3ccccc3)[C@H]2O1	Active

Each molecule was assayed on HL-60 (assay: Antiproliferative activity against human HL60 cells by MTT assay). Conditions: Homo sapiens, HL-60; read-out: IC50.
Type: functional, cell-based

IC50	Compound
8.5 µM	CC(C)C[C@@H]1O[C@H](COCc2ccccc2)[C@@H](OCc2ccccc2)[C@H](OCc2ccccc2)[C@H]1O
39.3 µM	c1ccc(COC[C@H]2OCC[C@@H](OCc3ccccc3)[C@@H]2OCc2ccccc2)cc1
8.4 µM	C[C@@H]1O[C@H](COCc2ccccc2)[C@@H](OCc2ccccc2)[C@H](OCc2ccccc2)[C@H]1O
17.2 µM	O[C@@H]1[C@@H](OCc2ccccc2)[C@H](OCc2ccccc2)[C@@H](COCc2ccccc2)O[C@@H]1CC1CCCCC1
26.3 µM	O[C@@H]1[C@@H](OCc2ccccc2)[C@H](OCc2ccccc2)[C@@H](COCc2ccccc2)O[C@H]1c1ccccc1
8.2 µM	CC[C@@H]1O[C@H](COCc2ccccc2)[C@@H](OCc2ccccc2)[C@H](OCc2ccccc2)[C@H]1O
20.2 µM	OC[C@H]1O[C@@H](Cc2ccccc2)[C@H](O)[C@@H](OCc2ccccc2)[C@@H]1OCc1ccccc1
19.3 µM	OCCC[C@@H]1O[C@H](COCc2ccccc2)[C@@H](OCc2ccccc2)[C@H](OCc2ccccc2)[C@H]1O
26.6 µM	O[C@@H]1[C@@H](O)[C@H](Cc2ccccc2)O[C@H](COCc2ccccc2)[C@H]1OCc1ccccc1
46.4 µM	ClC1(Cl)[C@@H]2[C@@H](OCc3ccccc3)[C@H](OCc3ccccc3)[C@@H](COCc3ccccc3)O[C@@H]21
28.2 µM	CCC[C@H]1O[C@H](COCc2ccccc2)[C@@H](OCc2ccccc2)[C@H](OCc2ccccc2)[C@H]1O
26.9 µM	C=CC[C@@H]1O[C@H](COCc2ccccc2)[C@@H](OCc2ccccc2)[C@H](OCc2ccccc2)[C@H]1OC(C)=O
11.7 µM	CCC[C@@H]1O[C@H](COCc2ccccc2)[C@@H](OCc2ccccc2)[C@H](OCc2ccccc2)[C@H]1O
8.7 µM	O[C@@H]1[C@@H](OCc2ccccc2)[C@H](OCc2ccccc2)[C@@H](COCc2ccccc2)O[C@H]1Cc1ccccc1
15.1 µM	C=CC[C@@H]1O[C@H](COCc2ccccc2)[C@@H](OCc2ccccc2)[C@H](OCc2ccccc2)[C@H]1O
35.3 µM	O[C@@H]1[C@@H](OCc2ccccc2)[C@H](O)[C@@H](COCc2ccccc2)O[C@H]1Cc1ccccc1
12.5 µM	CC1(C)OC[C@@H]2O[C@H](COCc3ccccc3)[C@@H](OCc3ccccc3)[C@H](OCc3ccccc3)[C@H]2O1
38.5 µM	c1ccc(COC[C@H]2O[C@@H]3C[C@@H]3[C@@H](OCc3ccccc3)[C@@H]2OCc2ccccc2)cc1
13.9 µM	CC(C)C[C@H]1O[C@H](COCc2ccccc2)[C@@H](OCc2ccccc2)[C@H](OCc2ccccc2)[C@H]1O
4.1 µM	O[C@@H]1[C@@H](OCc2ccccc2)[C@H](OCc2ccccc2)[C@@H](COCc2ccccc2)O[C@H]1CC1CCCCC1
12.1 µM	CC(C)(C)C[C@H]1O[C@H](COCc2ccccc2)[C@@H](OCc2ccccc2)[C@H](OCc2ccccc2)[C@H]1O
31.8 µM	C=CC[C@@H]1O[C@H](COCc2ccccc2)[C@@H](OCc2ccccc2)[C@H](OCc2ccccc2)C1=O
11.8 µM	C=C[C@@H]1O[C@H](COCc2ccccc2)[C@@H](OCc2ccccc2)[C@H](OCc2ccccc2)[C@H]1O

Same assay, conditions: hl-60

IC50	Compound
Not Active	CC(C)C[C@@H]1O[C@H](COCc2ccccc2)[C@H](OCc2ccccc2)[C@H](OCc2ccccc2)[C@H]1O
Not Active	CCCCOC[C@H]1O[C@@H](CCC)[C@H](O)[C@@H](OCCCC)[C@@H]1OCCCC
Not Active	C=CC[C@@H]1O[C@H](CO)[C@@H](O)[C@H](O)[C@H]1O
Not Active	c1ccc(COC[C@H]2O[C@H]3C[C@H]3[C@@H](OCc3ccccc3)[C@@H]2OCc2ccccc2)cc1
Not Active	CCCC[C@@H]1O[C@H](COCc2ccccc2)[C@@H](OCc2ccccc2)[C@H](OCc2ccccc2)[C@H]1O
Not Active	O[C@@H]1[C@@H](OCc2ccccc2)[C@H](OCc2ccccc2)[C@@H](COCc2ccccc2)O[C@@]12CCCO2
Not Active	O[C@@H]1[C@@H](O)[C@H](Cc2ccccc2)O[C@H](COCc2ccccc2)[C@H]1O
Not Active	O[C@@H]1[C@@H](OCc2ccccc2)[C@H](OCc2ccccc2)[C@@H](COCc2ccccc2)O[C@H]1CC1CC1
Not Active	C=CC[C@@H]1O[C@H](COCc2ccccc2)[C@@H](OCc2ccccc2)[C@H](OCc2ccccc2)C1O (single isomer, unassigned)
Not Active	C=C[C@H]1O[C@H](COCc2ccccc2)[C@@H](OCc2ccccc2)[C@H](OCc2ccccc2)[C@H]1O
Not Active	CC(=O)O[C@@H]1[C@@H](OCc2ccccc2)[C@H](OCc2ccccc2)[C@@H](COCc2ccccc2)O[C@@H]1Cc1ccccc1
Not Active	CC(=O)OC[C@@H]1O[C@H](COCc2ccccc2)[C@@H](OCc2ccccc2)[C@H](OCc2ccccc2)[C@H]1OC(C)=O
Not Active	O[C@@H]1[C@@H](OCc2ccccc2)[C@H](OCc2ccccc2)[C@@H](COCc2ccccc2)O[C@@H]1c1ccccc1
Not Active	C[C@H]1O[C@H](COCc2ccccc2)[C@@H](OCc2ccccc2)[C@H](OCc2ccccc2)[C@H]1O
Not Active	CC(=O)O[C@@H]1[C@@H](OCc2ccccc2)[C@H](OCc2ccccc2)[C@@H](COCc2ccccc2)O[C@H]1Cc1ccccc1
Not Active	OC[C@H]1O[C@@H](Cc2ccccc2)[C@H](O)[C@@H](O)[C@@H]1O
Not Active	OC[C@H]1O[C@@H](Cc2ccccc2)[C@H](O)[C@@H](OCc2ccccc2)[C@@H]1O
Not Active	C=CC[C@@H]1O[C@H](COC(C)=O)[C@@H](OC(C)=O)[C@H](OC(C)=O)[C@H]1OC(C)=O
Not Active	O[C@H]1CO[C@H](COCc2ccccc2)[C@@H](OCc2ccccc2)[C@@H]1OCc1ccccc1
Not Active	CCC[C@H]1O[C@H](COCc2ccccc2)[C@H](OCc2ccccc2)[C@H](OCc2ccccc2)[C@H]1O
Not Active	CC(C)C[C@H]1O[C@H](COCc2ccccc2)[C@@H](OCc2ccccc2)[C@H](OCc2ccccc2)[C@@H]1O

IC50	Compound
Not Active	CCC[C@H]1O[C@H](COCc2ccccc2)[C@@H](OCc2ccccc2)[C@H](OCc2ccccc2)[C@@H]1O
Not Active	CCCCCCCCCCCCCCCOC[C@H]1O[C@@H](CCC)[C@H](O)[C@@H](OCCCCCCCCCCCCCCC)[C@@H]1OCCCCCCCCCCCCCCC
Not Active	CCCC[C@H]1O[C@H](COCc2ccccc2)[C@@H](OCc2ccccc2)[C@H](OCc2ccccc2)[C@H]1O
Not Active	CC(C)C[C@@H]1O[C@H](COCc2ccccc2)[C@@H](OCc2ccccc2)[C@H](OCc2ccccc2)[C@@H]1O
Not Active	CC[C@H]1O[C@H](COCc2ccccc2)[C@@H](OCc2ccccc2)[C@H](OCc2ccccc2)[C@H]1O
Not Active	CCCCCCCCCCCCCCCOC[C@H]1O[C@H](CCC)[C@H](O)[C@@H](OCCCCCCCCCCCCCCC)[C@@H]1OCCCCCCCCCCCCCCC
Not Active	CCC[C@@H]1O[C@H](CO)[C@@H](O)[C@H](O)[C@H]1O
Not Active	O[C@@H]1[C@@H](OCc2ccccc2)[C@H](OCc2ccccc2)[C@@H](COCc2ccccc2)O[C@]12CCCO2
Not Active	O[C@@H]1[C@@H](OCc2ccccc2)[C@H](OCc2ccccc2)[C@@H](COCc2ccccc2)O[C@@H]1Cc1ccccc1
Not Active	CC(C)C[C@H]1O[C@H](COCc2ccccc2)[C@H](OCc2ccccc2)[C@H](OCc2ccccc2)[C@H]1O
Not Active	CCC[C@@H]1O[C@H](COCc2ccccc2)[C@H](OCc2ccccc2)[C@H](OCc2ccccc2)[C@H]1O
Not Active	CCCCC[C@@H]1O[C@H](COCc2ccccc2)[C@@H](OCc2ccccc2)[C@H](OCc2ccccc2)[C@H]1O
Not Active	CC(=O)OC[C@H]1O[C@@H](Cc2ccccc2)[C@H](OC(C)=O)[C@@H](OC(C)=O)[C@@H]1OC(C)=O
Not Active	CC(=O)OC[C@@H]1O[C@H](COCc2ccccc2)[C@@H](OCc2ccccc2)[C@H](OCc2ccccc2)[C@H]1OCc1ccccc1
Not Active	CC(C)(C)C[C@@H]1O[C@H](COCc2ccccc2)[C@@H](OCc2ccccc2)[C@H](OCc2ccccc2)[C@H]1O
Not Active	C#CC[C@@H]1O[C@H](COCc2ccccc2)[C@@H](OCc2ccccc2)[C@H](OCc2ccccc2)[C@H]1O
Not Active	CCC[C@@H]1O[C@H](COC)[C@@H](OC)[C@H](OC)[C@H]1O
Not Active	C=C[C@H]1O[C@H](COCc2ccccc2)[C@@H](OCc2ccccc2)[C@H](OCc2ccccc2)[C@H]1OC(C)=O
Not Active	CCC[C@@H]1O[C@H](COCc2ccccc2)[C@@H](OCc2ccccc2)[C@H](OCc2ccccc2)[C@@H]1O
Not Active	OC[C@H]1O[C@@H](Cc2ccccc2)[C@H](O)[C@@H](O)[C@@H]1OCc1ccccc1
